{"source": "patent US20100298141A1", "about": "“SUBSTITUTED PYRIDINE N-OXIDE HERBICIDES” (E. I. DU PONT DE NEMOURS AND COMPANY, priority 2007, published 2010)", "key": {"rice": {"system": "rice", "experiment": "Test C flooded paddy test", "assay_type": "in vivo, Oryza sativa", "settings": "Flood", "in_short": "(§1)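 In-water treatment: compound dosed into 3 cm flood over soil, water level unchanged throughout. Controls run alongside; visual assessment at day 13–15.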"}, "morningglory": {"system": "morningglory", "experiment": "Test A pre-/postemergence greenhouse test", "assay_type": "in vivo, Ipomoea spp.", "settings": "for Morningglory plant response rating: 0 to 100 scale", "in_short": "(§2)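 Sowing in loam/sand; same-day pre (directed soil spray) and post (foliar, 1–2 leaf, 2–10 cm) treatment with surfactant-containing non-phytotoxic solvent formulation; ~10 days in greenhouse; eye-scored injury against untreated plants.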"}, "soybean": {"system": "soybean", "experiment": "Test C pre-/postemergence test", "assay_type": "in vivo, Glycine max", "in_short": "(§3)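 Seeds were planted and treated preemergence with test chemical in a non-phytotoxic solvent mixture containing surfactant. Postemergence applications of the same formulation went onto plants 2 to 18 cm tall (1- to 4-leaf stage). A dash marks no test result.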"}, "catchweed bedstraw": {"system": "catchweed bedstraw", "experiment": "Test C pre-/postemergence test", "assay_type": "in vivo, Galium aparine", "in_short": "as §3"}, "downy brome": {"system": "downy brome", "experiment": "Test C pre-/postemergence test", "assay_type": "in vivo, Bromus tectorum", "in_short": "as §3"}, "cocklebur": {"system": "cocklebur", "experiment": "Test C pre-/postemergence test", "assay_type": "in vivo, Xanthium strumarium", "in_short": "as §3"}, "green foxtail": {"system": "green foxtail", "experiment": "Test C pre-/postemergence test", "assay_type": "in vivo, Setaria viridis", "in_short": "as §3"}, "kochia": {"system": "kochia", "experiment": "Test C pre-/postemergence test", "assay_type": "in vivo, Kochia scoparia", "in_short": "as §3"}, "blackgrass": {"system": "blackgrass", "experiment": "Test C pre-/postemergence test", "assay_type": "in vivo, Alopecurus myosuroides", "in_short": "as §3"}, "bermudagrass": {"system": "bermudagrass", "experiment": "Test C pre-/postemergence test", "assay_type": "in vivo, Cynodon dactylon", "in_short": "as §3"}, "redroot pigweed": {"system": "redroot pigweed", "experiment": "Test A pre-/postemergence greenhouse test", "assay_type": "in vivo, Amaranthus retroflexus", "settings": "Postemergence, 0 to 100 scale, 0 is no effect, 100 is complete control", "in_short": "as §2"}, "lambsquarters": {"system": "lambsquarters", "experiment": "Test C pre-/postemergence test", "assay_type": "in vivo, Chenopodium album", "in_short": "as §3"}, "woolly cupgrass": {"system": "woolly cupgrass", "experiment": "Test C pre-/postemergence test", "assay_type": "in vivo, Eriochloa villosa", "in_short": "as §3"}, "duck salad": {"system": "duck salad", "experiment": "Test C flooded paddy test", "assay_type": "in vivo, Heteranthera limosa", "settings": "Flood", "in_short": "as §1"}, "wild oat": {"system": "wild oat", "experiment": "Test C pre-/postemergence test", "assay_type": "in vivo, Avena fatua", "in_short": "as §3"}, "yellow nutsedge": {"system": "yellow nutsedge", "experiment": "Test C pre-/postemergence test", "assay_type": "in vivo, Cyperus esculentus", "in_short": "as §3"}, "[1]": {"settings": "31 g ai/ha, scale 0 to 100 (0 no effect, 100 complete control)"}, "[2]": {"settings": "62 g ai/ha, scale 0 to 100, 0 no effect, 100 complete control, 13 to 15 days"}, "[3]": {"settings": "125 g ai/ha, scale 0 to 100, 0 no effect, 100 complete control, 13 to 15 days"}, "[4]": {"settings": "250 g ai/ha, scale 0 to 100 (0 no effect, 100 complete control)"}, "[5]": {"settings": "31 g ai/ha, Preemergence, scale 0 to 100"}, "[6]": {"settings": "62 g ai/ha, preemergence, scale 0 (no effect) to 100 (complete control)"}, "[7]": {"settings": "preemergence, 125 g ai/ha, scale 0 (no effect) to 100 (complete control)"}}}
{"compound": "Cn1nc(C(F)(F)F)c(C(Cl)S(=O)(=O)c2cccc[n+]2[O-])c1Cl", "note": "(stereo not drawn) [Compound 12]", "values": [{"measurement": "Plant response rating, Rice", "setting": "rice; [1]", "value": 60}, {"measurement": "Plant response rating, Rice", "setting": "rice; [2]", "value": 60}, {"measurement": "Plant response rating, Rice", "setting": "rice; [3]", "value": 70}, {"measurement": "Plant response rating, Rice", "setting": "rice; [4]", "value": 80}, {"measurement": "Morningglory plant response rating", "setting": "morningglory; Postemergence, 125 g ai/ha, 0 is no effect, 100 is complete control", "value": 20}, {"measurement": "Morningglory plant response rating", "setting": "morningglory; Postemergence, 500 g ai/ha, 0 is no effect, 100 is complete control", "value": 30}, {"measurement": "Morningglory plant response rating", "setting": "morningglory; Preemergence, 125 g ai/ha, 0 no effect, 100 complete control", "value": 0}, {"measurement": "Plant response rating, Morningglory", "setting": "morningglory; Preemergence, 500 g ai/ha, 0 to 100 scale where 0 is no effect and 100 is complete control", "value": 60}, {"measurement": "Soybean plant response rating", "setting": "soybean; [5]", "value": 0}, {"measurement": "Soybean plant response rating", "setting": "soybean; [6]", "value": 0}, {"measurement": "Plant response rating (0 to 100), Soybean", "setting": "soybean; Preemergence, 250 g ai/ha", "value": 10}, {"measurement": "Soybean plant response rating", "setting": "soybean; [7]", "value": 0}, {"measurement": "Galium plant response rating", "setting": "catchweed bedstraw; [5]", "value": 80}, {"measurement": "Galium plant response rating", "setting": "catchweed bedstraw; [6]", "value": 100}, {"measurement": "Plant response rating (0 to 100), Galium", "setting": "catchweed bedstraw; Preemergence, 250 g ai/ha", "value": 100}, {"measurement": "Galium plant response rating", "setting": "catchweed bedstraw; [7]", "value": 100}, {"measurement": "Bromegrass, Downy plant response rating", "setting": "downy brome; [5]", "value": 0}, {"measurement": "Bromegrass, Downy plant response rating", "setting": "downy brome; [6]", "value": 0}, {"measurement": "Plant response rating (0 to 100), Bromegrass, Downy", "setting": "downy brome; Preemergence, 250 g ai/ha", "value": 0}, {"measurement": "Bromegrass, Downy plant response rating", "setting": "downy brome; [7]", "value": 0}, {"measurement": "Cocklebur plant response rating", "setting": "cocklebur; [5]", "value": 0}, {"measurement": "Cocklebur plant response rating", "setting": "cocklebur; [6]", "value": 0}, {"measurement": "Plant response rating (0 to 100), Cocklebur", "setting": "cocklebur; Preemergence, 250 g ai/ha", "value": 0}, {"measurement": "Cocklebur plant response rating", "setting": "cocklebur; [7]", "value": 0}, {"measurement": "Foxtail, Green plant response rating", "setting": "green foxtail; [5]", "value": 100}, {"measurement": "Plant response rating (0 to 100), Foxtail, Green", "setting": "green foxtail; Preemergence, 250 g ai/ha", "value": 100}, {"measurement": "Foxtail, Green plant response rating", "setting": "green foxtail; [7]", "value": 100}, {"measurement": "Kochia plant response rating", "setting": "kochia; [5]", "value": 0}, {"measurement": "Kochia plant response rating", "setting": "kochia; [6]", "value": 0}, {"measurement": "Plant response rating (0 to 100), Kochia", "setting": "kochia; Preemergence, 250 g ai/ha", "value": 80}, {"measurement": "Blackgrass plant response rating", "setting": "blackgrass; [5]", "value": 0}, {"measurement": "Blackgrass plant response rating", "setting": "blackgrass; [6]", "value": 98}, {"measurement": "Plant response rating (0 to 100), Blackgrass", "setting": "blackgrass; Preemergence, 250 g ai/ha", "value": 100}, {"measurement": "Blackgrass plant response rating", "setting": "blackgrass; [7]", "value": 98}, {"measurement": "Bermudagrass plant response rating", "setting": "bermudagrass; [5]", "value": 100}, {"measurement": "Bermudagrass plant response rating", "setting": "bermudagrass; [6]", "value": 100}, {"measurement": "Plant response rating (0 to 100), Bermudagrass", "setting": "bermudagrass; Preemergence, 250 g ai/ha", "value": 100}, {"measurement": "Bermudagrass plant response rating", "setting": "bermudagrass; [7]", "value": 100}, {"measurement": "Pigweed plant response rating", "setting": "redroot pigweed; 125 g ai/ha", "value": 0}, {"measurement": "Pigweed plant response rating", "setting": "redroot pigweed; 500 g ai/ha", "value": 0}, {"measurement": "Lambsquarters plant response rating", "setting": "lambsquarters; [5]", "value": 0}, {"measurement": "Lambsquarters plant response rating", "setting": "lambsquarters; [6]", "value": 100}, {"measurement": "Plant response rating (0 to 100), Lambsquarters", "setting": "lambsquarters; Preemergence, 250 g ai/ha", "value": 100}, {"measurement": "Lambsquarters plant response rating", "setting": "lambsquarters; [7]", "value": 100}, {"measurement": "Cupgrass, Woolly plant response rating", "setting": "woolly cupgrass; [5]", "value": 80}, {"measurement": "Cupgrass, Woolly plant response rating", "setting": "woolly cupgrass; [6]", "value": 100}, {"measurement": "Plant response rating (0 to 100), Cupgrass, Woolly", "setting": "woolly cupgrass; Preemergence, 250 g ai/ha", "value": 100}, {"measurement": "Cupgrass, Woolly plant response rating", "setting": "woolly cupgrass; [7]", "value": 100}, {"measurement": "Plant response rating, Ducksalad", "setting": "duck salad; [1]", "value": 40}, {"measurement": "Plant response rating, Ducksalad", "setting": "duck salad; [2]", "value": 95}, {"measurement": "Plant response rating, Ducksalad", "setting": "duck salad; [3]", "value": 100}, {"measurement": "Plant response rating, Ducksalad", "setting": "duck salad; [4]", "value": 100}, {"measurement": "Oat, Wild plant response rating", "setting": "wild oat; [5]", "value": 0}, {"measurement": "Oat, Wild plant response rating", "setting": "wild oat; [6]", "value": 0}, {"measurement": "Plant response rating (0 to 100), Oat, Wild", "setting": "wild oat; Preemergence, 250 g ai/ha", "value": 0}, {"measurement": "Oat, Wild plant response rating", "setting": "wild oat; [7]", "value": 0}, {"measurement": "Nutsedge, Yellow plant response rating", "setting": "yellow nutsedge; [5]", "value": 45}, {"measurement": "Nutsedge, Yellow plant response rating", "setting": "yellow nutsedge; [6]", "value": 70}, {"measurement": "Plant response rating (0 to 100), Nutsedge, Yellow", "setting": "yellow nutsedge; Preemergence, 250 g ai/ha", "value": 100}, {"measurement": "Nutsedge, Yellow plant response rating", "setting": "yellow nutsedge; [7]", "value": 90}]}
